In US9993459B2, “Selective HDAC6 inhibitors and uses thereof” (Universiteit Gent, priority 2015, dated 2018):
pIC50: −log10 of the molar value. Values joined by “and” are separate entries in the source; they are usually repeats but may differ in a detail not shown here. Equal values may be shown once.

Assays:
HDAC6 = target: T1, HDAC6 (Homo sapiens, UniProt Q9UBN7); assay: In vitro HDAC6 inhibition; type: biochemical; details: for inhibition at 10 µM: HDAC6, 10 μM; for pIC50: HDAC6, Table 1, read-out: IC50
T1 sequence (Q9UBN7 1-1215): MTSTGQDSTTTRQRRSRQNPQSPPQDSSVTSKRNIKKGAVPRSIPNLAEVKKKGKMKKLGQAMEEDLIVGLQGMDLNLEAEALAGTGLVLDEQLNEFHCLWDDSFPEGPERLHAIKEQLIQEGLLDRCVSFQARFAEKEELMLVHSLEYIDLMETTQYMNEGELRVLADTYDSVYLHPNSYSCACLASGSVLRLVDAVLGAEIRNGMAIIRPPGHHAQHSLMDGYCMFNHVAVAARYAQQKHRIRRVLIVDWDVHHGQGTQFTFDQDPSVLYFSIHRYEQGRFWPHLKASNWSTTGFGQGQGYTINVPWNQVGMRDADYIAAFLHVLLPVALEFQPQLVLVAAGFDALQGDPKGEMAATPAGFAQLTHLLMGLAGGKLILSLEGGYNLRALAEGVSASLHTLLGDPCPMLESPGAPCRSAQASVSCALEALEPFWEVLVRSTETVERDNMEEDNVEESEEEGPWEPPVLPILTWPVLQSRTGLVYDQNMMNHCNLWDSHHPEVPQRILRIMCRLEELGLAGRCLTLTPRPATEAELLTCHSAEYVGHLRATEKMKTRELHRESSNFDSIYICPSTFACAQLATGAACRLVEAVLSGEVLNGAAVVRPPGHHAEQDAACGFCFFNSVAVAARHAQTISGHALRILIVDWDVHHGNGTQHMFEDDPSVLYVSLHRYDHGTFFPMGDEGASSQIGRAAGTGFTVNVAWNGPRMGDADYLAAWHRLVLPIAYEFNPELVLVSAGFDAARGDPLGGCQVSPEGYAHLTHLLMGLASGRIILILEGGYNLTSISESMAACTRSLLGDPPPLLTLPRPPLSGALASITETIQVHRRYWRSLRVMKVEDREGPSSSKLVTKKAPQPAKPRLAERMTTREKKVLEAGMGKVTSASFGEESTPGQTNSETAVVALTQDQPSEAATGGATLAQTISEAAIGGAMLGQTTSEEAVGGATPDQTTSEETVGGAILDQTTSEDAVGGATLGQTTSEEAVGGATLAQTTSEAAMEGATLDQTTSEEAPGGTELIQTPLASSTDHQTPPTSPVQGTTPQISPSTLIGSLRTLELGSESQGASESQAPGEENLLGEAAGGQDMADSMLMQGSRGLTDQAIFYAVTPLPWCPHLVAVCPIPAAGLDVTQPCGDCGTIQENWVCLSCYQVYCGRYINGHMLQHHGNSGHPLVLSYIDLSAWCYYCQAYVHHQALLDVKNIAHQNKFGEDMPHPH

[1] = system: glucocorticoid receptor, GR; assay: GRE-dependent luciferase reporter p(GRE)2-50-luc in A549 cells; type: cell-based; details: A549; DEX 1 μM; CpdA 10 μM before DEX
AP-1 = details: published before; cited from earlier work
[2] = system: acetylation of α-tubulin in Neuro-2a cells; assay: Acetylation level of α-tubulin in Neuro-2a cells (Western blot); type: cell-based, Mouse; details: overnight, Neuro-2a; for normalized ratio Acetyl α-Tubulin/α-Tubulin against Tubastatin A, Average: Average of N = 1 to 4
Description: FIG. 1: Potency of inhibiting HDAC6 by compounds 7a, 7b and 13a in Neuro-2a cells. A. Cells were treated overnight with different concentrations of the HDAC6 inhibitors and blotted of the acetylation of α-tubulin.
Mouse neuroblastoma (Neuro-2a) cells were grown in a 1:1 mix of D-MEM (Dulbecco's Modified Eagle Medium) and F12 medium supplemented with glutamax (Invitrogen), 100 μg/ml streptomycin, 100 U/ml penicillin (Invitrogen), 10% fetal calf serum (Greiner Bio-one), 1% non-essential amino acids (Invitrogen) and 1.6% NaHCO3 (Invitrogen) at 37° C. and 7.5% CO2. To split the cells, cells were washed with Versene (Invitrogen) and dissociated with 0.05% Trypsine-EDTA (Invitrogen).
For sodium dodecyl sulfate-polyacrylamide gel electrophoresis (SDS-PAGE) analysis, transfected cells were collected using the EpiQuik Total Histone Extraction Kit (EpiGentek) according to manufacturer's instructions. Protein concentrations were determined using microBCA kit (Thermo Fisher Scientific Inc., Pittsburgh, Pa., USA) according to manufacturer's instructions. Before resolving the samples on a 12% SDS-PAGE gel, samples containing equal amounts of protein were supplemented with reducing sample buffer (Thermo Scientific) and boiled at 95° C. for 5 min. After electrophoresis, the proteins were transferred to a polyvinylidene difluoride (PVDF) membrane (Millipore Corp., Bedford, Mass., USA). The non-specific binding was blocked by incubation of the membrane in 5% bovine serum albumin (BSA), diluted in Tris Buffered Saline Tween (TBST, 50 mM TRIS, 150 mM NaCl, 0.1% Tween-20 (Applichem, Darmstadt, Duitsland) for 1 h at room temperature followed by incubation with primary antibodies overnight. The antibodies, diluted in TBS-T, were directed against α-tubulin (1/5000, T6199, Sigma-Aldrich), and acetylated α-tubulin (1/5000, T6793 monoclonal, Sigma-Aldrich). The secondary antibodies, coupled to alkaline phosphatase (anti-mouse or anti-rabbit, 1/5000, Sigma-Aldrich) were used. Blots were visualised by adding the ECF substrate (Enhanced Chemical Fluorescence, GE Healthcare, Uppsala, Sweden) and imaged with the ImageQuant_LAS 4000. A mild reblotting buffer (Millipore) was applied to strip the blots. ImageQuant TL version 7.0-software was used to quantify the blots.
Neuro-2a cells were treated overnight with different concentrations of the HDAC6 inhibitors and the effect on the acetylation level of α-tubulin was determined using Western blots (FIG. 1).

[3] = system: TNF-α and IL-6 in LPS stimulated human THP-1 macrophages; details: reported; cited from earlier work

inhibition at 10 µM (HDAC6) [%]	pIC50 (HDAC6)	melting point [°C]	Structure (SMILES)	also measured
95.1	6.51	181	O=C(NO)c1ccc(NCc2csc3ccc(-c4ccccc4)cc23)cc1 [Compound 7c, 3-[(4-hydroxycarbamoylphenyl)aminomethyl]-5-phenyl-benzothiophene]	
73.4	5.62	190	Cc1cc(C(=O)NO)ccc1NCc1csc2ccccc12 [Compound 7d, 3-[(4-hydroxycarbamoyl-2-methylphenyl)aminomethyl]-benzothiophene]	
89.9	6.33	178	O=C(NO)c1ccc(N(Cc2ccccc2)Cc2csc3ccccc23)cc1 [Compound 8a, 3-[N-benzyl-N-(4-hydroxycarbamoylphenyl)aminomethyl]-benzothiophene]	
84.9	6.07	179	O=C(NO)c1ccc(N(Cc2ccccc2)Cc2csc3ccc(Br)cc23)cc1 [Compound 8b, 5-bromo-3-[N-benzyl-N-(4-hydroxycarbamoylphenyl)aminomethyl]-benzothiophene]	
47.9		126	O=C(NO)c1ccc(N(Cc2ccccc2)Cc2csc3ccc(-c4ccccc4)cc23)cc1 [Compound 8c, 3-[N-benzyl-N-(4-hydroxycarbamoylphenyl)aminomethyl]-5-phenyl-benzothiophene]	
89.8	6.18	190.5	O=C(NO)c1ccc(NCc2csc3cc(-c4ccccc4)ccc23)cc1 [Compound 13b, 3-[(4-hydroxycarbamoylphenyl)aminomethyl]-6-phenyl-benzothiophene]	
70.7	5.68	97.5	O=C(NO)c1ccc(N(Cc2ccccc2)Cc2csc3cc(Br)ccc23)cc1 [Compound 14a, 6-bromo-3-[N-benzyl-N-(4-hydroxycarbamoylphenyl)aminomethyl]-benzothiophene]	
61.1		102	O=C(NO)c1ccc(N(Cc2ccccc2)Cc2csc3cc(-c4ccccc4)ccc23)cc1 [Compound 14b, 3-[N-benzyl-N-(4-hydroxycarbamoylphenyl)aminomethyl]-6-phenyl-benzothiophene]	
99	6.70	132.5	O=C(NO)c1ccc(NCc2c[nH]c3ccccc23)cc1 [Compound 18, 3-[(4-hydroxycarbamoylphenyl)aminomethyl]indole]	
			CNCC(Cl)c1ccc(OC(C)=O)cc1.Cl (stereo not drawn) [CpdA, reference compound]	GRE-dependent reporter gene activity, reference compounds [1]: able to lower the GRE-dependent reporter gene activity; targeting of AP-1-driven promoters (AP-1): does not target AP-1-driven promoters
			CN1CCc2c(c3ccccc3n2Cc2ccc(C(=O)NO)cc2)C1 [Tub A, Tubastatin A, reference compound]	normalized ratio Acetyl α-Tubulin/α-Tubulin against Tubastatin A, Average ([2]; 50 nM): 34.97 and 25.12 and 23.86; normalized ratio Acetyl α-Tubulin/α-Tubulin against Tubastatin A, Average ([2]; 100 nM): 44.00 and 41.43 and 34.18; normalized ratio Acetyl α-Tubulin/α-Tubulin against Tubastatin A, Average ([2]; 500 nM): 66.24 and 73.15 and 70.36; normalized ratio Acetyl α-Tubulin/α-Tubulin against Tubastatin A, Average ([2]; 1 μM): 100.00; normalized ratio Acetyl α-Tubulin/α-Tubulin against Tubastatin A ([2]; 1 μM, single experiments N = 1 to 4, Tub A 1 μM = 100): 100.00; inhibition of TNF-α and IL-6 [3]: significantly inhibit TNF-α and IL-6
